Experimental data as given in patent US8372838B2, “Compounds as bradykinin B1 antagonists” (Boehringer Ingelheim International GmbH, priority 2010, dated 2013).

Columns and labels:
cynomolgus BK1-receptor = molecular target: T1, cynomolgus BK1-receptor (Macaca fascicularis, UniProt Q3BCU0); assay: cynoBK1-receptor binding assay
T1 construct: expressed in transfected cells; host or cells: CHO cells
T1 sequence (Q3BCU0 1-352): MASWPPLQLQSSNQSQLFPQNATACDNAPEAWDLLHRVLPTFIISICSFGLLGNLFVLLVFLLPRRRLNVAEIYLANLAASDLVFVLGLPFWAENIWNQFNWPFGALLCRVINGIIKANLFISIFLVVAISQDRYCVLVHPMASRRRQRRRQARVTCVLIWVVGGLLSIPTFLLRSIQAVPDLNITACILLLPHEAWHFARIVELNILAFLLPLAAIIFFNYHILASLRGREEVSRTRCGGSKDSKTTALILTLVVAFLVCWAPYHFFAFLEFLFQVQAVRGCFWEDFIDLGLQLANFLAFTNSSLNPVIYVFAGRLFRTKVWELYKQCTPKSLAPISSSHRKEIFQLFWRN
Method: Description of the Method of Binding the CynoBK1-Receptor
CHO cells that express the cynomolgus BK1-receptor are cultivated in “HAM'S F-12 Medium”. The medium is removed from confluent cultures, the cells are washed with PBS buffer, scraped off or detached using Versene and isolated by centrifuging. Then the cells are homogenised in suspension, the homogenate is centrifuged and resuspended. After the protein content has been determined 200 μl of the homogenate (50 to 250 μg protein/assay) are incubated for 60-180 minutes at ambient temperature with 0.5 to 5.0 nM kallidine (DesArg10,Leu9), [3,4-Prolyl-3,43H(N)] and increasing concentrations of the test substance in a total volume of 250 μl. The incubation is stopped by rapid filtration through GF/B glass fibre filters that have been pre-treated with polyethyleneimine (0.3%). The radioactivity bound to the protein is measured with a TopCount NXT. The radioactivity bound in the presence of 1.0 μM kallidine (DesArg10) is defined as non-specific binding. The concentration binding curve may be analysed using computer-aided non-linear curve fitting to determine the corresponding Ki value for the test substance.
Test results of the cynoBK1-receptor binding assay: […]

human hepatocytes = assay: metabolic clearance in human hepatocytes; format: in vitro ADME; settings: cryopreserved primary human hepatocytes, 5% human serum, 1 μM test compound, 6 h; well-stirred model, percentage of human hepatic blood flow
Source text: The metabolic stability can be measured by determining the decomposition in human hepatocytes and using the rate of decomposition to calculate the clearance, which in turn is expressed as a percentage of the human hepatic blood flow (% Qh). […] Thus, in the interests of achieving a long duration of activity it is highly advantageous if the active substance has a high metabolic stability (low clearance).
Description of Method for Determining Metabolic Clearance in Human Hepatocytes
The metabolic breakdown of the test substance is determined in a hepatocyte suspension. Cryopreserved primary human hepatocytes are incubated in a suitable incubation medium (e.g. Dulbecco's modified eagle medium, DMEM) which contains 5% human serum. After 30 minutes' pre-incubation in the incubator (37° C., 10% carbon dioxide) 5 μL of the test compound (80 μM, prepared from a 2 mM stock solution in dimethylsulphoxide and diluted 1:25 with incubation medium) are added to 395 μL of hepatocyte suspension (cell density in the range from 0.25-1 million cells/mL, typically 1 million cells/mL; final concentration of the test compound 1 μM). The cells are incubated for 6 hours in an incubator with an orbital agitator. At times 0, 0.5, 1, 2, 4 and 6 h, 25 μL of the medium are removed in each case. The medium removed is mixed with an excess of acetonitrile and centrifuged for 5 minutes. The supernatant is removed, evaporated to dryness under nitrogen and taken up in a mixture of 25% methanol and 0.1% formic acid. The reduction in the concentration of the test substance in the incubation medium is determined by coupling liquid chromatography with electrospray mass spectrometry. The linear phase of the decrease in the concentration of the test substance in the medium is used for the calculation. The intrinsic clearance is calculated as follows: CL_INTRINSIC=dose/AUC=(C0/CD)/(AUD+clast/k)×1000/60. C0: initial concentration in the incubation [μM], CD: cell density of the vital cells [10e6cells/mL], AUD: area under the curve [μM×h], clast: concentration of the last data point [μM], k: increase in the regression lines for the reduction in the test substance [h−1]. The intrinsic in vitro clearance calculated is now converted into the intrinsic in vivo clearance: CL_INTRINSIC_INVIVO [ml/min/kg]=(CL_INTRINSIC [μL/min/10e6cells]×hepatocellularity [10e6 cells/g liver]×liver factor [g/kg body weight])/1000 and the estimated human clearance is calculated using the well-stirred model: CL [ml/min/kg]=CL_INTRINSIC_INVIVO [ml/min/kg]×hepatic blood flow [ml/min/kg]/(CL_INTRINSIC_INVIVO [ml/min/kg]+hepatic blood flow [ml/min/kg]). […]

[1] = CHO cell homogenate expressing cynomolgus BK1-receptor, radioligand kallidine (DesArg10,Leu9), [3,4-Prolyl-3,43H(N)]
[2] = cynoBK1-receptor binding, repeated beside clearance in the metabolic stability table

| SMILES | Ki (cynomolgus BK1-receptor; [1]) | Ki (cynomolgus BK1-receptor; [2]) | Clearance (human hepatocytes) |
| --- | --- | --- | --- |
| O=C(N[C@@]1(C(=O)NCc2ccc(Nc3ccccc3C(F)(F)F)cc2)CCOC1)c1cn[nH]c(=O)c1 [Example 5, (S)-6-oxo-1,6-dihydro-pyridazine-4-carboxylic acid-{3-[4-(2-trifluoromethyl-phenylamino)-benzylcarbamoyl]-tetrahydrofuran-3-yl}-amide] | 11 nM | 11 nM | 22 % Qh |
| O=C(NC1(C(=O)NCc2ccc(Nc3ccc(F)cc3C(F)(F)F)cn2)CC1)c1cn[nH]c(=O)c1 [Example 1, 6-oxo-5,6-dihydro-pyridazine-4-carboxylic acid-(1-{[5-(4-fluoro-2-trifluoromethyl-phenylamino)-pyridin-2-ylmethyl]-carbamoyl}-cyclopropyl)-amide] | 3.5 nM | 3.5 nM | 1 % Qh |
| O=C(N[C@@]1(C(=O)NCc2ccc(Nc3ccc(Cl)cc3C(F)(F)F)cc2F)CCOC1)c1cn[nH]c(=O)c1 [Example 7, (S)-6-oxo-1,6-dihydro-pyridazine-4-carboxylic acid-{3-[4-(4-chloro-2-trifluoromethyl-phenylamino)-2-fluoro-benzylcarbamoyl]-tetrahydrofuran-3-yl}-amide] | 30 nM | – | – |
| O=C(N[C@@]1(C(=O)NCc2ccc(Nc3ccccc3C(F)(F)F)cc2F)CCOC1)c1cn[nH]c(=O)c1 [Example 9, (S)-6-oxo-1,6-dihydro-pyridazine-4-carboxylic acid {3-[2-fluoro-4-(2-trifluoromethyl-phenylamino)-benzylcarbamoyl]-tetrahydro-furan-3-yl}-amide] | 6.6 nM | – | – |
| O=C(NC1(C(=O)NCc2ccc(Nc3ccc(Cl)cc3C(F)(F)F)cn2)CC1)c1cn[nH]c(=O)c1 [Example 2, 6-oxo-1,6-dihydro-pyridazine-4-carboxylic acid-(1-{[5-(4-chloro-2-trifluoromethyl-phenylamino)-pyridin-2-ylmethyl]-carbamoyl}-cyclopropyl)-amide] | 5.1 nM | – | – |
| O=C(N[C@@]1(C(=O)NCc2ccc(Nc3ccc(Br)cc3C(F)(F)F)cc2)CCOC1)c1cn[nH]c(=O)c1 [Example 8, (S)-6-oxo-1,6-dihydro-pyridazine-4-carboxylic acid-{3-[4-(4-bromo-2-trifluoromethyl-phenylamino)-benzylcarbamoyl]-tetrahydrofuran-3-yl}-amide] | 37 nM | – | – |
| O=C(N[C@@]1(C(=O)NCc2ccc(Nc3ccc(F)cc3C(F)(F)F)cc2F)CCOC1)c1cn[nH]c(=O)c1 [Example 6, (S)-6-oxo-1,6-dihydro-pyridazine-4-carboxylic acid-{3-[2-fluoro-4-(4-fluoro-2-trifluoromethyl-phenylamino)-benzylcarbamoyl]-tetrahydrofuran-3-yl}-amide] | 3.2 nM | – | 6 % Qh |
| O=C(N[C@@]1(C(=O)NCc2ccc(Nc3ccc(F)cc3C(F)(F)F)cc2)CCOC1)c1cn[nH]c(=O)c1 [Example 3, (S)-6-oxo-1,6-dihydro-pyridazine-4-carboxylic acid-{3-[4-(4-fluoro-2-trifluoromethyl-phenylamino)-benzylcarbamoyl]-tetrahydrofuran-3-yl}-amide] | 12 nM | 12 nM | 7 % Qh |
| O=C(N[C@@]1(C(=O)NCc2ccc(Nc3ccc(Cl)cc3C(F)(F)F)cc2)CCOC1)c1cn[nH]c(=O)c1 [Example 4, (S)-6-oxo-1,6-dihydro-pyridazine-4-carboxylic acid-{3-[4-(4-chloro-2-trifluoromethyl-phenylamino)-benzylcarbamoyl]-tetrahydrofuran-3-yl}-amide] | 27 nM | – | – |
